Source: patent publication US6462055B2, “Alpha-methylbenzyl-containing thiourea inhibitors of herpes viruses containing a phenylenediamine group” (Wyeth, priority 1998, dated 2002)
In brackets after ≈: the same amount, converted by molar mass.

What was measured:
[1] = system: HCMV recombinant mutant virus (RV145); assay: microbe, parasite or virus in culture; format: cell-based, human cytomegalovirus; conditions: for IC50: Human betaherpesvirus 5, read-out: IC50 ug/ml HCMV, HCMV
Summary of the method: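 Human foreskin fibroblasts infected with HCMV RV145 carrying a viral-promoter-driven beta-glucuronidase gene, in presence of compound. At 96 h post-infection, lysates assayed for beta-glucuronidase with colorimetric or fluorogenic glucuronide substrate as replication read-out. IC50 estimated from varying inhibitor amounts.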

HSV-1 = assay: HSV Antiviral (ELISA) Assay in Vero cells; format: cell-based, herpes simplex virus type 1; conditions: HSV-1, Vero cells; for IC50: Human alphaherpesvirus 1, read-out: IC50 (ug/ml) HSV
Summary of the method: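 Viral replication was quantified by cell-fixed ELISA for HSV glycoprotein D, using a β-galactosidase reporter and fluorogenic umbelliferyl substrate, about 24 h after HSV-1 infection (MOI 0.006) of Vero cells. Compounds, at several concentrations, were added 30 min pre-infection. IC50 was derived from fluorescence relative to the compound-free signal.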

VZV strain Ellen = assay: VZV Antiviral (ELISA) Assay in human foreskin fibroblast cells; format: cell-based, varicella-zoster virus; conditions: for IC50 / inhibition at 10 µg/mL: Human alphaherpesvirus 3, Fibroblast; for IC50: read-out: IC50 (ug/ml) VZV; for inhibition at 10 µg/mL: read-out: % inhibition 10 ug/ml VZV, 10 ug/ml
Summary of the method: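 HFF cells infected with VZV Ellen at low multiplicity (<0.1) overnight were seeded at 3.5×10^4 cells/well in DMEM with 2% FBS plus compound and incubated three days at 37° C., 5% CO2. Viral replication was read by ELISA against glycoprotein II with β-galactosidase fluorogenic readout (ex 365/em 450 nm); IC50 relative to no-compound fluorescence.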

| SMILES | IC50 ug/ml HCMV [1] | IC50 (ug/ml) HSV (HSV-1) | IC50 (ug/ml) VZV (VZV strain Ellen) | % inhibition 10 ug/ml VZV (VZV strain Ellen) | IC50 [1] | IC50 (HSV-1) | IC50 (VZV strain Ellen) | inhibition at 10 µg/mL (VZV strain Ellen) |
| --- | --- | --- | --- | --- | --- | --- | --- | --- |
| COc1cc(OC)c(NC(=S)Nc2ccc(NC(=O)c3ccc(F)c(F)c3F)cc2)cc1Cl [Example 192] | >10 µg/mL | 0.5 µg/mL (≈ 1.01 µM) | >10 µg/mL | 14% |  |  |  |  |
| O=C(Nc1ccc(NC(=S)NCc2ccccc2)cc1)c1ccccc1F [Example 536] | >10 µg/mL | >10 µg/mL | >10 µg/mL |  |  |  |  |  |
| NNC(=O)c1cccc(NC(=S)Nc2ccc(NC(=O)c3ccccc3F)cc2)c1 [Example 463] | >10 µg/mL | >10 µg/mL | >10 µg/mL | 19% |  |  |  |  |
| CN(C)c1cc(Cl)cc(NC(=S)Nc2ccc(NC(=O)c3ccccc3F)cc2)c1 [Example 523] | 3.2 µg/mL (≈ 7.22 µM) | 0.6 µg/mL (≈ 1.35 µM) | 4 µg/mL (≈ 9.03 µM) | 75% |  |  |  |  |
| COc1cc(OC)c(NC(=S)Nc2ccc(NC(=O)c3cc(F)ccc3F)cc2)cc1Cl [Example 187] | >10 µg/mL | 0.2 µg/mL (≈ 0.418 µM) | >10 µg/mL | 53% |  |  |  |  |
| COc1cc(OC)c(NC(=S)Nc2ccc(NC(=O)c3c(F)c(F)c(F)c(F)c3F)cc2)cc1Cl [Example 193] | >10 µg/mL | 1.5 µg/mL (≈ 2.82 µM) | 3.8 µg/mL (≈ 7.14 µM) | 106% |  |  |  |  |
| CCOc1ccc(NC(=S)Nc2ccc(NC(=O)c3ccccc3F)cc2)cc1Cl [Example 806] | >10 µg/mL | >10 µg/mL | >7.5 µg/mL |  |  |  |  |  |
| Cc1ccccc1C(C)NC(=S)Nc1ccc(NC(=O)c2ccccc2F)cc1 (stereo not drawn) [Example 775] | 1 µg/mL (≈ 2.45 µM) | >10 µg/mL | >7.5 µg/mL |  |  |  |  |  |
| O=C(Nc1ccc(NC(=S)NC(CO)c2ccccc2)cc1)c1ccccc1F (stereo not drawn) [Example 797] |  |  |  |  | > 10 µg/mL | > 10 µg/mL | 1.7 µg/mL (≈ 4.15 µM) |  |
| COc1cc(C)c(Cl)cc1NC(=S)Nc1ccc(NC(=O)c2ccccc2F)cc1 [Example 849, N-{4-[3-(5-Chloro-2-methoxy-4-methyl-phenyl)-thioureido]-phenyl}-2-fluoro-benzamide] |  |  |  |  | > 10 µg/mL | > 10 µg/mL | > 10 µg/mL | 38% |
| O=C(Nc1ccc(NC(=S)NCc2ccc3c(c2)OCO3)cc1)c1ccccc1F [Example 540] | >0.5 µg/mL | >10 µg/mL | >10 µg/mL |  |  |  |  |  |
| COc1cc(OC)c(NC(=S)Nc2ccc(NC(=O)c3ccccc3OC)cc2)cc1Cl [Example 119] | > 10 µg/mL | 0.5 µg/mL (≈ 1.06 µM) | >10 µg/mL | 1% |  |  |  |  |
| CCCCOc1ccc(NC(=S)Nc2ccc(NC(=O)c3ccccc3F)cc2)cc1Cl [Example 809] | >10 µg/mL | >10 µg/mL | >7.5 µg/mL |  |  |  |  |  |
| O=C(Nc1ccc(NC(=S)Nc2cccc(F)c2)cc1)c1ccccc1F [Example 962, 2-Fluoro-N-{4-[3-(3-fluoro-phenyl)-thioureido]-phenyl}-benzamide] |  |  |  |  | > 10 µg/mL | > 10 µg/mL | > 10 µg/mL | 10% |
| CC(NC(=S)Nc1ccc(NC(=O)c2ccccc2F)cc1)c1ccccc1Br (stereo not drawn) [Example 783] | 1.1 µg/mL (≈ 2.33 µM) | >10 µg/mL | 0.3 µg/mL (≈ 0.635 µM) |  |  |  |  |  |
| COc1cccc(C(=O)Nc2ccc(NC(=S)Nc3ccc(C)c(Cl)c3)cc2)c1 [Example 232] | >10 µg/mL | 1 µg/mL (≈ 2.35 µM) | >10 µg/mL | 21% |  |  |  |  |
| Nc1ccc(NC(=S)Nc2ccc(NC(=O)c3ccccc3F)cc2)cc1Cl [Example 404] | 8 µg/mL (≈ 19.3 µM) | 0.4 µg/mL (≈ 0.964 µM) | >10 µg/mL | 15% |  |  |  |  |
| O=C(Nc1ccc(NC(=S)Nc2cc(Cl)cc(Cl)c2)cc1)c1ccccc1F [Example 934, N-{4-[3-(3,5-Dichloro-phenyl)-thioureido]-phenyl}-2-fluoro-benzamide] |  |  |  |  | > 10 µg/mL | > 10 µg/mL | > 10 µg/mL | 18% |
| CN(C)c1c(Cl)cccc1NC(=S)Nc1ccc(NC(=O)c2c(F)cccc2F)cc1 [Example 504] | 2 µg/mL (≈ 4.34 µM) | 6 µg/mL (≈ 13 µM) | 4.5 µg/mL (≈ 9.76 µM) | 99% |  |  |  |  |
| CC(=O)Nc1cccc(NC(=S)Nc2ccc(NC(=O)c3ccccc3F)cc2)c1 [Example 477] | >10 µg/mL | >10 µg/mL | >10 µg/mL | 15% |  |  |  |  |
| CC(NC(=S)Nc1ccc(NC(=O)c2ccc(F)cc2)cc1)c1ccc(F)cc1 (stereo not drawn) [Example 801] |  |  |  |  | > 10 µg/mL | > 10 µg/mL | > 7.5 µg/mL |  |
| CC(NC(=S)Nc1ccc(C(=O)Nc2ccc(F)cc2)cc1)c1ccc(F)cc1 (stereo not drawn) [Example 975, N-(4-Fluoro-phenyl)-4-{3-[1-(4-fluoro-phenyl)-ethyl]-thioureido}-benzamide] |  |  |  |  | > 10 µg/mL | > 10 µg/mL | 0.87 µg/mL (≈ 2.11 µM) |  |
| O=C(Nc1ccc(NC(=S)Nc2cc(Cl)ccc2Cl)cc1)c1ccccc1F [Example 931, N-{4-[3-(2,5-Dichloro-phenyl)-thioureido]-phenyl}-2-fluoro-benzamide] |  |  |  |  | > 10 µg/mL | 4 µg/mL (≈ 9.21 µM) | > 10 µg/mL | 51% |
| Cc1ccccc1C(=O)Nc1ccc(NC(=S)Nc2ccc(N(C)C3CCN(C)CC3)c(Cl)c2)cc1 [Example 375] | 1.5 µg/mL (≈ 2.87 µM) | 5 µg/mL (≈ 9.58 µM) | 7 µg/mL (≈ 13.4 µM) | 95% |  |  |  |  |
| CC(NC(=S)Nc1ccc(NC(=O)c2ccc(Cl)cc2)cc1)c1ccc(F)cc1 (stereo not drawn) [Example 756] | >10 µg/mL | >10 µg/mL | 0.3 µg/mL (≈ 0.701 µM) |  |  |  |  |  |
| COc1cc(OC)c(NC(=S)Nc2ccc(NC(=O)c3cccc(O)c3)cc2)cc1Cl [Example 254] | 4 µg/mL (≈ 8.73 µM) | 0.9 µg/mL (≈ 1.97 µM) | 4 µg/mL (≈ 8.73 µM) | 110% |  |  |  |  |
| O=C(Nc1ccc(NC(=S)Nc2cccc(O)c2)cc1)c1ccccc1F [Example 475] | >10 µg/mL | 5 µg/mL (≈ 13.1 µM) | >10 µg/mL | 28% |  |  |  |  |
| Nc1c(Cl)cccc1NC(=S)Nc1ccc(NC(=O)c2c(F)cccc2F)cc1 [Example 465] | >10 µg/mL | >10 µg/mL | >10 µg/mL | 31% |  |  |  |  |
| CC(NC(=S)Nc1ccc(NC(=O)c2cc3ccccc3o2)cc1)c1ccc(F)cc1 (stereo not drawn) [Example 980, Benzofuran-2-carboxylic acid (4-{3-[1-(4-fluoro-phenyl)-ethyl]-thioureido}-phenyl)-amide] |  |  |  |  | > 10 µg/mL | > 10 µg/mL | 0.15 µg/mL (≈ 0.346 µM) |  |
| CC(NC(=S)Nc1ccc(NC(=O)c2ccccc2Cl)cc1)c1ccc(F)cc1 (stereo not drawn) [Example 755] | >10 µg/mL | >10 µg/mL | 7 µg/mL (≈ 16.4 µM) |  |  |  |  |  |
